# Patent publication US20240299593A1, “SYSTEMS AND METHODS FOR GENERATION OF HYPERPOLARIZED MATERIALS” (NVISION IMAGING TECHNOLOGIES GMBH, priority 2021, published 2024)
# Where a name gives a salt, the structure may show the parent alone. Read-outs that look alike come from different tables or passages of the source.
# Legend:
# [1] = ICH toxicity limits, cited from earlier work; for Limits: residual solvent concentration in carrier; for Permissible Daily Exposure: residual solvent
# [2] = SABRE catalyst in acetone extraction study (proton NMR of both phases); type: physicochemical; conditions: 1 ml Acetone-d6, 6 ml MTBE, 1 ml D2O
# [3] = type: physicochemical; conditions: for extraction efficiency (output/input acetone concentration in water): organic wash:aqueous 4:1; for extraction efficiency, comparison in words: with and without pyruvate in solution
# [4] = Liquid-liquid purification system, Example 1 (samples of phases analyzed)
# Description: A system was prepared comprising a first vessel, a second vessel fluidly connected to the first vessel, and a third vessel fluidly connected to the second vessel. The vessels and the fluid path were covered by a defined magnetic field provided by solenoids to prevent undesired hyperpolarisation loss during the processing of a solution through the system.
# The mixture was bubbled with nitrogen gas, and 1.0 mL of base (400 mM NaOD in D2O) was injected into Vessel 1 to cleave the pyruvate ester into sodium pyruvate and the corresponding unbonded sidearm.
# The solution in Vessel 1 was then subjected to a first washing step. 20 mL of organic washing solvent (e.g., diethyl ether or tert-butyl methyl ether) were injected into the solution, and then agitated using nitrogen gas bubbling. The mixture was then allowed to settle for about 10 seconds until a clear phase separation between the aqueous phase (lower phase) and the organic phase (upper phase) had formed.
# The aqueous phase from Vessel 1 was pumped into Vessel 2, which had been prefilled with 20 mL of the same organic washing solvent (e.g., diethyl ether or tert-butyl methyl ether). The mixture was again agitated using nitrogen gas bubbling, and allowed to settle for about 10 seconds until a clear phase separation between the aqueous phase (lower phase) and the organic phase (upper phase) had formed. […]
Molecule,Limits [1],Permissible Daily Exposure [1],other results
"CC(Cl)(Cl)Cl [1,1,1-Trichloroethane]",1500 ppm,,
"ClC=C(Cl)Cl [1,1,2-Trichloroethene]",80 ppm,0.8 mg/day,
"C=C(Cl)Cl [1,1-Dichloroethene]",8 ppm,,
"ClCCCl [1,2-Dichloroethane]",5 ppm,,
"COCCOC [1,2-Dimethoxyethane]",100 ppm,1.0 mg/day,
CCCCCO [1-Pentanol],5000 ppm,50 mg/day,
CCOCCO [2-Ethoxyethanol],160 ppm,1.6 mg/day,
CC(=O)O [Acetic acid],5000 ppm,,
CC(C)=O [Acetone],5000 ppm,50 mg/day,concentration in the aqueous phase after washing [2]: lower in the aqueous phase after washing
CC#N [Acetonitrile],410 ppm,4.1 mg/day,
COc1ccccc1 [Anisole],5000 ppm,50 mg/day,
CCCCOC(C)=O [Butyl acetate],5000 ppm,50 mg/day,
ClC(Cl)(Cl)Cl [Carbon tetrachloride],4 ppm,,
C1CCCCC1 [Cyclohexane],3880 ppm,38.8 mg/day,
ClCCl [Dichloromethane],600 ppm,6.0 mg/day,"extraction efficiency (output/input acetone concentration in water) ([3]; 2000 mM acetone, With Pyruvate): 0.04; extraction efficiency (output/input acetone concentration in water) ([3]; 9000 mM acetone, No Pyruvate): 0.07; extraction efficiency (output/input acetone concentration in water) ([3]; 9000 mM acetone, With Pyruvate): 0.06; extraction efficiency, comparison in words [3]: best extraction efficiency"
CCOCC [Diethyl ether],,,"extraction efficiency (output/input acetone concentration in water) ([3]; 9000 mM acetone, No Pyruvate): 0.29; extraction efficiency, comparison in words [3]: effective extraction efficiency"
C[S+](C)[O-] [Dimethyl sulfoxide],5000 ppm,50 mg/day,

Molecule,Limits [1],Permissible Daily Exposure [1],other results
CCO [Ethanol],5000 ppm,50 mg/day,
CCOC=O [Ethyl formate],5000 ppm,50 mg/day,
NC=O [Formamide],220 ppm,2.2 mg/day,
CCCCCCC [Heptane],5000 ppm,50 mg/day,
CCCCCC [Hexane],290 ppm,2.9 mg/day,
COC(C)=O [Methyl acetate],5000 ppm,50 mg/day,
CCCCC(C)=O [Methylbutyl ketone],50 ppm,0.5 mg/day,
CC1CCCCC1 [Methylcyclohexane],1180 ppm,11.8 mg/day,
CC(=O)CC(C)C [Methylisobutyl ketone],5000 ppm,50 mg/day,
"CN(C)C=O [N,N-Dimethylformamide]",880 ppm,,
CN1CCCC1=O [N-Methylpyrrolidone],530 ppm,15.3 mg/day,
CCCOC(C)=O [Propyl acetate],5000 ppm,50 mg/day,
c1ccc2c(c1)CCCC2 [Tetralin],100 ppm,1.0 mg/day,
CC(=O)C(=O)[O-].[Na+] [sodium pyruvate],,,"pH ([4]; Vessel 1, after hydrolysis and phosphate buffer, acetone/D2O): 6-9; pH ([4]; Vessel 3, final samples): 6-9"
COC(C)(C)C [tert-Butylmethyl ether],5000 ppm,50 mg/day,"extraction efficiency (output/input acetone concentration in water) ([3]; 2000 mM acetone, No Pyruvate): 0.33; extraction efficiency (output/input acetone concentration in water) ([3]; 2000 mM acetone, With Pyruvate): 0.27; extraction efficiency (output/input acetone concentration in water) ([3]; 9000 mM acetone, No Pyruvate): 0.24; extraction efficiency (output/input acetone concentration in water) ([3]; 9000 mM acetone, With Pyruvate): 0.23; extraction efficiency, comparison in words [3]: effective extraction efficiency"
IrIMes(COD) PF6,,,concentration in the aqueous phase after washing [2]: lower in the aqueous phase after washing; observability in NMR spectrum of the phases [2]: observable only in one of the phases and not in the other
Xylene,2170 ppm,21.7 mg/day,
